≈ marks a conversion by molar mass, not a printed value. Read-outs that look alike come from different tables or passages of the source. Where a SMILES comes first, the peptide text is derived from it. Bridges are numbered along the chain shown (N, C = ends). [ ]: non-standard residue; d: D form. The star is where a group is joined. ξ: configuration not given here. Decanoyl(3ξ-OH) = CCCCCCCC(O)CC(=O)*; Dab = NCC[CH](N)C(=O)O; Dhb = C/C=C(\N)C(=O)O
What was measured:
Mycobacterium smegmatis = format: cell-based
[1] = system: selected human cancer cell lines;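 note: MTT dye viability readout in semi-confluent cancer cells, compound exposure 1-24 hours, MTT then 4 hours at 37 °C, compared against untreated negative control wells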
Procedure: Cancer cell assays can be performed using the MTT dye protocol. Viability of cells may be determined by the dye response. In the following procedure, approximately 1.5×10^4 cells per well can be added and viability may be determined with the cells in a semi-confluent state. The assay can be performed in a 96-well microtiter plate using a New Brunswick Cell Counter. After addition of the compound or compounds of the present invention, the plate may incubate for 1-24 hours. MTT may be added to each well including negative control wells untreated with the compounds of the present invention. The plate would then be incubated at 37° C. for 4 hours. The liquid contents of each well can then be removed, and isopropanol with 0.1 M HCl would then be added to each well. The plate can be sealed with parafilm to prevent evaporation of the isopropanol. The plate would then be allowed to sit for approximately 5-10 minutes in order to solubilize the precipitate. Purified water would then be added to each well.

With `C/C=C(\NC(=O)C(C)NC(=O)C(C)NC(=O)C(CC(C)C)NC(=O)C(NC(=O)C(C)NC(=O)C(C)NC(=O)C(NC(=O)C1CCCN1C(=O)/C(=C/C)NC(=O)CC(O)CCCCCCC)C(C)C)C(C)C)C(=O)NC(C(=O)N/C(=C\C)C(=O)NC(C)C(=O)NC(C(=O)NC(C)C(=O)NC(C)C(=O)N/C(=C\C)C(=O)NC1C(=O)NC(CO)C(=O)NC(C)C(=O)NC(C(C)C)C(=O)NC(C)C(=O)NC(CCN)C(=O)NC(CCN)C(=O)NC(Cc2ccc(O)cc2)C(=O)OC1C)C(C)C)C(C)C` (stereo not drawn) [SP 25A, syringopeptin 25A] ({Decanoyl(3ξ-OH)}-[Dhb]PVAAVLAA[Dhb]V[Dhb]AVAA[Dhb]TSAVA[Dab][Dab]Y; ester 18-C; configuration not given here) as the compound, how does the MIC (Mycobacterium smegmatis) read?
The MIC was 4 mg/L (≈ 1.67 µM).

And the IC50 ([1]; Bone (U2OS))?
Its IC50 is 101.47 mg/L (≈ 42.3 µM).

What about the “% cytotoxicity” value ([1]; Bone (U2OS), 1.00 ug/ml) of the same compound?
Its value is −10.06%.

What about the “% cytotoxicity” value ([1]; Bone (U2OS), 2.50 ug/ml) of the same compound?
The value was −3.64%.

And the “% cytotoxicity” value ([1]; Bone (U2OS), 5.00 ug/ml)?
Its value is 1.69%.

What about the “% cytotoxicity” value ([1]; Bone (U2OS), 10.00 ug/ml) of the same compound?
Its value is 4.93%.

What about the IC50 ([1]; Breast (MCF-7)) of the same compound?
Its IC50 is 30.27 mg/L (≈ 12.6 µM).

What about the “% cytotoxicity” value ([1]; Breast (MCF-7), 1.00 ug/ml) of the same compound?
Its value is −20.40%.

And the “% cytotoxicity” value ([1]; Breast (MCF-7), 2.50 ug/ml)?
The value was −1.12%.

What about the “% cytotoxicity” value ([1]; Breast (MCF-7), 5.00 ug/ml) of the same compound?
The value was 1.76%.

And the “% cytotoxicity” value ([1]; Breast (MCF-7), 10.00 ug/ml)?
Its value is 16.52%.

What about the IC50 ([1]; Breast (MDA-MB231)) of the same compound?
Its IC50 is 10.14 mg/L (≈ 4.23 µM).

What about the “% cytotoxicity” value ([1]; Breast (MDA-MB231), 1.00 ug/ml) of the same compound?
Its value is −12.40%.

And the “% cytotoxicity” value ([1]; Breast (MDA-MB231), 2.50 ug/ml)?
Its value is 9.23%.

What about the “% cytotoxicity” value ([1]; Breast (MDA-MB231), 5.00 ug/ml) of the same compound?
The value was 21.98%.

And the “% cytotoxicity” value ([1]; Breast (MDA-MB231), 10.00 ug/ml)?
Its value is 49.30%.

What about the IC50 ([1]; Breast (MDA-MB435)) of the same compound?
Its IC50 is 6.25 mg/L (≈ 2.6 µM).

And the “% cytotoxicity” value ([1]; Breast (MDA-MB435), 1.00 ug/ml)?
Its value is 20.78%.

And the “% cytotoxicity” value ([1]; Breast (MDA-MB435), 2.50 ug/ml)?
Its value is −5.22%.

And the “% cytotoxicity” value ([1]; Breast (MDA-MB435), 5.00 ug/ml)?
The value was 18.84%.

What about the “% cytotoxicity” value ([1]; Breast (MDA-MB435), 10.00 ug/ml) of the same compound?
The value was 79.98%.

What about the IC50 ([1]; Cervical (HeLa)) of the same compound?
Its IC50 is 25.50 mg/L (≈ 10.6 µM).

What about the “% cytotoxicity” value ([1]; Cervical (HeLa), 1.00 ug/ml) of the same compound?
The value was 1.68%.

And the “% cytotoxicity” value ([1]; Cervical (HeLa), 2.50 ug/ml)?
Its value is 3.50%.

And the “% cytotoxicity” value ([1]; Cervical (HeLa), 5.00 ug/ml)?
Its value is 1.08%.

And the “% cytotoxicity” value ([1]; Cervical (HeLa), 10.00 ug/ml)?
The value was 19.61%.

What about the IC50 ([1]; Colon (HT29)) of the same compound?
The IC50 was 29.72 mg/L (≈ 12.4 µM).

What about the “% cytotoxicity” value ([1]; Colon (HT29), 1.00 ug/ml) of the same compound?
Its value is 8.89%.

What about the “% cytotoxicity” value ([1]; Colon (HT29), 2.50 ug/ml) of the same compound?
Its value is 23.85%.

What about the “% cytotoxicity” value ([1]; Colon (HT29), 5.00 ug/ml) of the same compound?
Its value is 24.59%.

And the “% cytotoxicity” value ([1]; Colon (HT29), 10.00 ug/ml)?
Its value is 16.83%.

And the IC50 ([1]; Lung (A549))?
Its IC50 is 11.41 mg/L (≈ 4.75 µM).

And the “% cytotoxicity” value ([1]; Lung (A549), 1.00 ug/ml)?
Its value is 15.66%.

What about the “% cytotoxicity” value ([1]; Lung (A549), 2.50 ug/ml) of the same compound?
The value was 13.51%.

And the “% cytotoxicity” value ([1]; Lung (A549), 5.00 ug/ml)?
Its value is 41.14%.

And the “% cytotoxicity” value ([1]; Lung (A549), 10.00 ug/ml)?
The value was 43.82%.

And the IC50 ([1]; Ovarian (OVCAR3))?
Its IC50 is 19.75 mg/L (≈ 8.23 µM).

And the “% cytotoxicity” value ([1]; Ovarian (OVCAR3), 1.00 ug/ml)?
The value was 6.42%.

What about the “% cytotoxicity” value ([1]; Ovarian (OVCAR3), 2.50 ug/ml) of the same compound?
The value was 16.30%.

What about the “% cytotoxicity” value ([1]; Ovarian (OVCAR3), 5.00 ug/ml) of the same compound?
Its value is 16.41%.

What about the “% cytotoxicity” value ([1]; Ovarian (OVCAR3), 10.00 ug/ml) of the same compound?
Its value is 25.31%.

And the IC50 ([1]; Prostate (DU145))?
Its IC50 is 6.56 mg/L (≈ 2.73 µM).

What about the “% cytotoxicity” value ([1]; Prostate (DU145), 1.00 ug/ml) of the same compound?
Its value is 26.92%.

And the “% cytotoxicity” value ([1]; Prostate (DU145), 2.50 ug/ml)?
The value was 23.60%.

And the “% cytotoxicity” value ([1]; Prostate (DU145), 5.00 ug/ml)?
The value was 45.22%.

What about the “% cytotoxicity” value ([1]; Prostate (DU145), 10.00 ug/ml) of the same compound?
Its value is 76.25%.

And the IC50 ([1]; Stomach (AGS))?
Its IC50 is 18.58 mg/L (≈ 7.74 µM).

What about the “% cytotoxicity” value ([1]; Stomach (AGS), 1.00 ug/ml) of the same compound?
The value was 4.00%.

And the “% cytotoxicity” value ([1]; Stomach (AGS), 2.50 ug/ml)?
The value was 13.87%.

And the “% cytotoxicity” value ([1]; Stomach (AGS), 5.00 ug/ml)?
Its value is 26.88%.

And the “% cytotoxicity” value ([1]; Stomach (AGS), 10.00 ug/ml)?
The value was 26.90%.

Reference: patent publication US20080261891A1, “COMPOSITIONS AND METHODS FOR USING SYRINGOPEPTIN 25A AND RHAMNOLIPIDS” (Utah State University, priority 2007, published 2008)
